Read-outs that look alike come from different tables or passages of the source.
Assays:
Type in all cases: biochemical
Pim1 kinase = Pim1 kinase (Homo sapiens, UniProt P11309); test: Pim1 ATP depletion assay; conditions: Pim1 ATP depletion assay;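 further: Luciferase-luciferin luminescence readout of residual ATP after PIM1 transfers phosphate to a peptide substrate, 40 µM ATP added, reaction run to roughly half ATP consumption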
Pim2 kinase = Pim2 kinase (Homo sapiens, UniProt Q9P1W9); test: Pim2 ATP depletion assay;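 further: Luciferase-based luminescent readout of ATP remaining after PIM2 phosphorylates a BAD peptide, final 5 nM enzyme, 4 µM ATP, 10 µM peptide, 2.5% DMSO, run to roughly half ATP consumption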
Pim3 kinase = Pim3 kinase (Homo sapiens, UniProt Q86V86); test: Pim3 ATP depletion assay

Chain of Pim2 kinase (Q9P1W9 whole entry): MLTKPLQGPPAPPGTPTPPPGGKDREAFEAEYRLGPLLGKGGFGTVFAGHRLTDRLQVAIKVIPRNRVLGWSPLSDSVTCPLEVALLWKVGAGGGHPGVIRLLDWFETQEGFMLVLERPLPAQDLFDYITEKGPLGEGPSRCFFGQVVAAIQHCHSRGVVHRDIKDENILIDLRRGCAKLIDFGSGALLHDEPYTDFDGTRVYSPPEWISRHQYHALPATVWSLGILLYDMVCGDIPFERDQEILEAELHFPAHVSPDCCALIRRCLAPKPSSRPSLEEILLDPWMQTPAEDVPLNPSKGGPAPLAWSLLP
Chain of Pim1 kinase (P11309 whole entry): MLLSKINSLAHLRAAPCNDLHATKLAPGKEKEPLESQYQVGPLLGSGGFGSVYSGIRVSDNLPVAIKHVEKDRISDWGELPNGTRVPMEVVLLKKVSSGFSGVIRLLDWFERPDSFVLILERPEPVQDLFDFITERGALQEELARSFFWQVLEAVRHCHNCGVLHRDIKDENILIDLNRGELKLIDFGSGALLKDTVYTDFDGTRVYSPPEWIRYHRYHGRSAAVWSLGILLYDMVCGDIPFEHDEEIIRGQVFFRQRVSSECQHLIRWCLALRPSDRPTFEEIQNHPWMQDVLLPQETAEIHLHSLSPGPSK

| IC50 (Pim1 kinase; read-out: PIM1 IC50) [µM] | IC50 (Pim2 kinase; read-out: PIM2 IC50) [µM] | IC50 (Pim3 kinase; read-out: PIM3 IC50) [µM] | IC50 (Pim1 kinase; read-out: IC50 (μM) PIM1) [µM] | IC50 (Pim2 kinase; read-out: IC50 (μM) PIM2) [µM] | IC50 (Pim3 kinase; read-out: IC50 (μM) PIM3) [µM] | SMILES |
| --- | --- | --- | --- | --- | --- | --- |
| < 1 | < 1 | < 1 |  |  |  | CC1(N)CCCN(c2ccncc2NC(=O)c2nc(-c3ccccc3F)ccc2N)C1 (stereo not drawn) [Example 674, 3-Amino-6-(2-fluoro-phenyl)-pyridine-2-carboxylic acid (3-amino-3-methyl-3,4,5,6-tetra-hydro-2H-[1,4′]bipyridinyl-3′-yl)-amide] |
| < 1 | < 1 | < 1 |  |  |  | COc1cnccc1-c1ccncc1NC(=O)c1nc(-c2ccccc2F)ccc1N [Example 610, 3-amino-6-(2-fluorophenyl)-N-(3′-methoxy-4,4′-bipyridin-3-yl)pyridine-2-carboxamide] |
| < 1 | < 1 | < 1 |  |  |  | Nc1ccc(-c2c(F)cccc2F)nc1C(=O)Nc1cnccc1N1CCCC(O)C1 (stereo not drawn) [Example 658, 3-Amino-6-(2,6-difluoro-phenyl)-pyridine-2-carboxylic acid (3-hydroxy-3,4,5,6-tetra-hydro-2H-[1,4′]bipyridinyl-3′-yl)-amide] |
|  |  |  | < 1 | < 1 | < 1 | Cc1ccccc1-c1ccc(N)c(C(=O)Nc2cnccc2N2CCC[C@H](N)C2)n1 [Example 338, 3-amino-6-o-tolyl-pyridine-2-carboxylic acid ((S)-3-amino-3,4,5,6-tetrahydro-2H-[1,4′]bi-pyridinyl-3′-yl)-amide] |
| < 1 | < 1 | < 1 |  |  |  | Nc1cccc(-c2ccc(N)c(C(=O)Nc3cnccc3N3CCC[C@H](N)C3)n2)n1 [Example 711, 5,6′-Diamino-[2,2′]bipyridinyl-6-carboxylic acid (3-amino-3,4,5,6-tetrahydro-2H-[1,4′]bi-pyridinyl-3′-yl)-amide] |
| < 1 | < 1 | < 1 |  |  |  | Nc1ccc(-c2ccc(C(F)(F)F)cn2)nc1C(=O)Nc1cnccc1N1CCC[C@H](N)C1 [Example 714, 5-Amino-5′-trifluoromethyl-[2,2′]bipyridinyl-6-carboxylic acid (3-amino-3,4,5,6-tetra-hydro-2H-[1,4′]bipyridinyl-3′-yl)-amide] |
| < 1 | < 1 | < 1 |  |  |  | Cc1nc(N)cc(-c2ccncc2NC(=O)c2nc(-c3ccc(C(F)(F)F)cc3F)ccc2N)n1 [Example 557, 3-Amino-6-(2-fluoro-4-trifluoromethyl-phenyl)-pyridine-2-carboxylic acid [4-(6-amino-2-methyl-pyrimidin-4-yl)-pyridin-3-yl]-amide] |
| < 1 | < 1 | < 1 |  |  |  | CC1(N)CCCN(c2ccncc2NC(=O)c2nc(-c3c(F)cccc3F)ncc2N)C1 (stereo not drawn) [Example 673, 5-Amino-2-(2,6-difluoro-phenyl)-pyrimidine-4-carboxylic acid (3-amino-3-methyl-3,4,5,6-tetrahydro-2H-[1,4′]bipyridinyl-3′-yl)-amide] |
| < 1 | < 1 | < 1 |  |  |  | Nc1ccc(-c2ccccc2F)nc1C(=O)Nc1cnccc1N1CCC[C@@H](O)C1 [Example 659, 3-Amino-6-(2-fluoro-phenyl)-pyridine-2-carboxylic acid (3-hydroxy-3,4,5,6-tetrahydro-2H-[1,4′]bipyridinyl-3′-yl)-amide] |
| < 1 | < 1 | < 1 |  |  |  | CC(C)/C=C\c1ccc(F)c(-c2ccc(N)c(C(=O)Nc3cnccc3N3CCC[C@H](N)C3)n2)c1 [Example 687, 3-Amino-6-[2-fluoro-5-(3-methyl-but-1-enyl)-phenyl]-pyridine-2-carboxylic acid (3-amino-3,4,5,6-tetrahydro-2H-[1,4′]bipyridinyl-3′-yl)-amide] |
| < 1 | < 1 | < 1 |  |  |  | Cc1cc(-c2ccncc2NC(=O)c2nc(-c3cc(C(=O)N(C)C)ccc3F)ccc2N)nc(N)n1 [Example 564, 3-Amino-6-(5-dimethylcarbamoyl-2-fluoro-phenyl)-pyridine-2-carboxylic acid [4-(2-amino-6-methyl-pyrimidin-4-yl)-pyridin-3-yl]-amide] |
| < 1 | < 1 | < 1 |  |  |  | COc1cncc(-c2ccncc2NC(=O)c2nc(-c3ccccc3F)ccc2N)c1 [Example 609, 3-amino-6-(2-fluorophenyl)-N-(5-methoxy-3,4′-bipyridin-3′-yl)pyridine-2-carboxamide] |
|  |  |  | < 1 | < 1 | < 1 | CCc1cccc(-c2ccc(N)c(C(=O)Nc3cnccc3N3CCC[C@H](N)C3)n2)c1 [Example 452, 3-Amino-6-(3-ethyl-phenyl)-pyridine-2-carboxylic acid (3-amino-3,4,5,6-tetrahydro-2H-[1,4′]bipyridinyl-3′-yl)-amide] |
| < 1 | < 1 | < 1 |  |  |  | Cc1ccc(F)c(-c2ccc(N)c(C(=O)Nc3cnccc3N3CCC[C@H](N)C3)n2)n1 [Example 709, 5-Amino-3′-fluoro-6′-methyl-[2,2′]bipyridinyl-6-carboxylic acid (3-amino-3,4,5,6-tetra-hydro-2H-[1,4′]bipyridinyl-3′-yl)-amide] |
| < 1 | < 1 | < 1 |  |  |  | CN1CCN(c2ccc(-c3ccc(N)c(C(=O)Nc4cnccc4-c4cc(N)nc(C(F)(F)F)n4)n3)cc2)CC1 [Example 574, 3-Amino-6-[4-(4-methyl-piperazin-1-yl)-phenyl]-pyridine-2-carboxylic acid [4-(6-amino-2-trifluoromethyl-pyrimidin-4-yl)-pyridin-3-yl]-amide] |
|  |  |  | < 1 | < 1 | < 1 | Nc1ccc(-c2nc(C(=O)Nc3cnccc3N3CCC[C@H](N)C3)c(N)cc2F)cn1 [Example 514, 5,6′-Diamino-3-fluoro-[2,3′]bi-pyridinyl-6-carboxylic acid (3-amino-3,4,5,6-tetrahydro-2H-[1,4′]bipyridinyl-3′-yl)-amide] |
|  |  |  | < 1 | < 1 | < 1 | CC(C)NC(=O)c1ccc(F)c(-c2ccc(N)c(C(=O)Nc3cnccc3N3CCC(F)(F)C(N)C3)n2)c1 (stereo not drawn) [Example 255, 3-Amino-6-(2-fluoro-5-isopropylcarbamoyl-phenyl)-pyridine-2-carboxylic acid (3-amino-4,4-difluoro-3,4,5,6-tetra-hydro-2H-[1,4′]bipyridinyl-3′-yl)-amide] |
| < 1 | < 1 | < 1 |  |  |  | Nc1ccc(C2CC3CCC2C3)nc1C(=O)Nc1cnccc1N1CCC[C@H](N)C1 (stereo in doubt) [Example 646, 3-Amino-6-bicyclo[2.2.1]hept-2-yl-pyridine-2-carboxylic acid (3-amino-3,4,5,6-tetrahydro-2H-[1,4′]bipyridinyl-3′-yl)-amide] |
|  |  |  | < 1 | < 1 | < 1 | Nc1ccc(-c2nccs2)nc1C(=O)Nc1cnccc1N1CC[C@@H](F)[C@H](N)C1 [Example 257, 3-amino-N-{4-[(3R,4R)-3-amino-4-fluoropiperidin-1-yl]pyridin-3-yl}-6-(1,3-thiazol-2-yl)pyridine-2-carboxamide] |
|  |  |  | < 1 | < 1 | < 1 | COc1nc(N)cc(-c2ccncc2NC(=O)c2nc(-c3c(F)cccc3F)ccc2N)n1 [Example 271, 3-Amino-6-(2,6-difluoro-phenyl)-pyridine-2-carboxylic acid [4-(6-amino-2-methoxy-pyrimidin-4-yl)-pyridin-3-yl]-amide] |
|  |  |  | 1 to 10 | 10 to 25 | 1 to 10 | Nc1ncc(-c2cccc(C(=O)N3CCOCC3)c2)nc1C(=O)Nc1ccccc1N1CCNCC1 [Example 398, 3-amino-6-[3-(morpholine-4-carbonyl)-phenyl]-pyrazine-2-carboxylic acid (2-piperazin-1-yl-phenyl)-amide] |
| < 1 | < 1 | < 1 |  |  |  | CCCOc1ccc(F)c(-c2ccc(N)c(C(=O)Nc3cnccc3-c3cc(C)nc(N)n3)n2)c1F [Example 562, 3-Amino-6-(2,6-difluoro-3-propoxy-phenyl)-pyridine-2-carboxylic acid [4-(2-amino-6-methyl-pyrimidin-4-yl)-pyridin-3-yl]-amide] |
|  |  |  | < 1 | < 1 | < 1 | CC1CC(N)CN(c2ccncc2NC(=O)c2nc(C3CCCCC3)ccc2N)C1 (stereo not drawn) [Example 283, 3-Amino-6-cyclohexyl-pyridine-2-carboxylic acid (3-amino-5-methyl-3,4,5,6-tetrahydro-2H-[1,4′]bipyridinyl-3′-yl)-amide] |
| < 1 | < 1 | < 1 |  |  |  | Nc1cc(-c2ccncc2NC(=O)c2nc(-c3ccccc3F)ccc2N)ccn1 [Example 605, 3-amino-N-(2′-amino-4,4′-bipyridin-3-yl)-6-(2-fluorophenyl)pyridine-2-carboxamide] |
|  |  |  | < 1 | < 1 | < 1 | Nc1ccc(-c2cncnc2)nc1C(=O)Nc1cnccc1N1CCC[C@H](N)C1 [Example 407, 3-amino-6-pyrimidin-5-yl-pyridine-2-carboxylic acid ((S)-3-amino-3,4,5,6-tetrahydro-2H-[1,4′]bipyridinyl-3′-yl)-amide] |
| < 1 | < 1 | < 1 |  |  |  | Nc1ccc(-c2ncccc2Cl)nc1C(=O)Nc1cnccc1N1CCC[C@H](N)C1 [Example 719, 5-Amino-3′-chloro-[2,2′]bi-pyridinyl-6-carboxylic acid (3-amino-3,4,5,6-tetrahydro-2H-[1,4′]bipyridinyl-3′-yl)-amide] |
| < 1 | < 1 | < 1 |  |  |  | Cc1cc(F)c(-c2ccc(N)c(C(=O)Nc3cnccc3N3CCCC(O)C3)n2)cc1Cl (stereo not drawn) [Example 654, 3-Amino-6-(5-chloro-2-fluoro-4-methyl-phenyl)-pyridine-2-carboxylic acid (3-hydroxy-3,4,5,6-tetrahydro-2H-[1,4′]bi-pyridinyl-3′-yl)-amide] |

Reference: patent US20140249135A1, “PIM KINASE INHIBITORS AND METHODS OF THEIR USE” (NOVARTIS AG, priority 2007, published 2014)
